Data as given in publication PMC10562414, “GLP-1R signaling neighborhoods associate with the susceptibility to adverse drug reactions of incretin mimetics” (Nature Communications, 2023).

What was measured:
Type in all cases: cell-based
GLP-1R [1] = biological target: T1, GLP-1R (Homo sapiens, UniProt P43220); experiment: ebBRET pathway activation (15 pathways) at early endosomes (rGFP-FYVE); details: for Efficacy (normalized) / Potency (logEC50) / Emax: Early endosomes
Method: Subcellular resolution was achieved by using organelle-specific energy acceptors for early endosomes, the Golgi apparatus and the endoplasmic reticulum.
Data are represented as the mean ± SEM (n = 3 biologically independent experiments). EE early endosomes, GA Golgi apparatus, ER endoplasmic reticulum.
HEK293 cells were cultured in DMEM supplemented with 10% FBS, 1% penicillin/streptomycin, propagated in plastic flasks and grown at 37 °C in 5% CO2 and 90% humidity. […] After a 48-hour incubation, cells were washed once with HBSS and maintained in the same buffer.
Best fit values were excluded if EC50 was outside of the concentration range tested or if the span was negative.
Pharmacological characterization of GLP-1R agonist signaling
profiles at early endosomes. a, Illustration depicting the ebBRET approach to monitoring
signaling at early endosomes. b, Concentration-response curves of GLP-1R agonists across 15
pathways at early endosomes using rGFP-F YVE. Data are represented by the non-linear fit and
scaled according to the highest responding drug (n=3 biologic ally independent samples).
Drug-s pecific polar area diagrams for efficacy (normalized to the highest responding drug) (c)
Drugs were deemed to activate
a given pathway after comparing the top and bottom parameters from non-linear regression by
Jaccard similarity index for efficacy (e) and potency (f) quantifies similarities and
differences across drug responses.
Drug- induced transducer engagement by GLP- 1R at early
endosomes. Agonist concentration response curves for 15 transducers at early endosomes.
Drugs were deemed to activate a given pathway after comparing the top and bottom parameters
from non-linear regression by one-sided extra sum-o f-s quares F-t est followed by Bonferroni
Data are represented as the mean ± SEM (n=3
biologically independent samples). Sigmoidal dose-r esponse curves are present for
responsive pathways and flat lines indicate non-r esponding pathway s.
Polar area diagrams depict pathway activation at early endosomes.
Pathway-specific polar area diagrams for efficacy (normalized to the highest responding drug) (a)
Drugs were deemed to activate a
given pathway after comparing the top and bottom parameters from non-linear regression by

GLP-1R [2] = biological target: T1, GLP-1R; experiment: ebBRET pathway activation (15 transducers), normalized efficacy and potency, Supplementary Fig. 11 (cellular compartment not given)
GLP-1R [3] = biological target: T1, GLP-1R; experiment: ebBRET pathway activation (effector membrane translocation, 15 pathways) at the plasma membrane (rGFP-CAAX); parameters: Potency (logEC50): scale not given here; details: for Efficacy (normalized) / Emax / Potency (logEC50): Plasma membrane; for Efficacy (normalized): Fig. 2c; for Potency (logEC50): Fig. 2d
[4] = plasma membrane rGFP-CAAX, HEK293, PDZRhoGEF-RlucII, agonist incubation 0 min, as tabulated for polar area diagram, n=3-6
[5] = plasma membrane rGFP-CAAX, HEK293, Rap1Gap-RlucII, agonist incubation 0 min, as tabulated for polar area diagram, n=3-6
[6] = plasma membrane rGFP-CAAX, HEK293, Rap1Gap-RlucII, agonist incubation 0 min, normalized to the highest responding drug, F test P < 0.00625, n=3-6
[7] = plasma membrane rGFP-CAAX, HEK293, p63RhoGEF-RlucII, agonist incubation 0 min, as tabulated for polar area diagram, n=3-6
[8] = plasma membrane rGFP-CAAX, HEK293, p63RhoGEF-RlucII, agonist incubation 0 min, normalized to the highest responding drug, F test P < 0.00625, n=3-6

T1 sequence (P43220 24-463): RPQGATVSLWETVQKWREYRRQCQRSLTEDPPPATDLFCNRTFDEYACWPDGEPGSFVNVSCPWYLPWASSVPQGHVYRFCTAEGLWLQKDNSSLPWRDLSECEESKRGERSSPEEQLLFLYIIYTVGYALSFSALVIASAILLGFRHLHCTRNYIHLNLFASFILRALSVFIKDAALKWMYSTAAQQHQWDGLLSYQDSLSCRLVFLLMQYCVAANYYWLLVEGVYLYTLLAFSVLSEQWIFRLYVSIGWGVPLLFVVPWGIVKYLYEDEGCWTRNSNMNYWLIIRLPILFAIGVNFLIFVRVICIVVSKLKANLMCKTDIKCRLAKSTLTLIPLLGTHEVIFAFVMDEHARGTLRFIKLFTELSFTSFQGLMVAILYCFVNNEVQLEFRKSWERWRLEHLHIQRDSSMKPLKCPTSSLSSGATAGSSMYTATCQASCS

Compound: N#Cc1ccc(COc2cccc(C3CCN(Cc4nc5ccc(C(=O)O)cc5n4C[C@@H]4CCO4)CC3)n2)c(F)c1 [Danuglipron]
- Efficacy (normalized) (GLP-1R [1]; GRK2/Gβγ): 0.507
- Potency (logEC50) (GLP-1R [1]; GRK2/Gβγ): 0.4671
- Efficacy (normalized) (GLP-1R [1]; Gα11): 0
- Emax (GLP-1R [1]; Gα11): 0
- Potency (logEC50) (GLP-1R [1]; Gα11): 0
- Efficacy (normalized) (GLP-1R [1]; Gα12): 0
- Emax (GLP-1R [1]; Gα12): 0
- Potency (logEC50) (GLP-1R [1]; Gα12): 0
- Efficacy (normalized) (GLP-1R [1]; Gα13): 0
- Emax (GLP-1R [1]; Gα13): 0
- Potency (logEC50) (GLP-1R [1]; Gα13): 0
- Efficacy (normalized) (GLP-1R [1]; Gα14): 0.9516
- Emax (GLP-1R [1]; Gα14): 0.02161
- Potency (logEC50) (GLP-1R [1]; Gα14): 0.7414
- Efficacy (normalized) (GLP-1R [1]; Gα15): 0
- Emax (GLP-1R [1]; Gα15): 0
- Potency (logEC50) (GLP-1R [1]; Gα15): 0
- Efficacy (normalized) (GLP-1R [1]; Gαi1): 0
- Emax (GLP-1R [1]; Gαi1): 0
- Potency (logEC50) (GLP-1R [1]; Gαi1): 0
- Efficacy (normalized) (GLP-1R [1]; Gαi2): 0
- Emax (GLP-1R [1]; Gαi2): 0
- Potency (logEC50) (GLP-1R [1]; Gαi2): 0
- Efficacy (normalized) (GLP-1R [1]; Gαi3): 0
- Emax (GLP-1R [1]; Gαi3): 0
- Potency (logEC50) (GLP-1R [1]; Gαi3): 0
- Efficacy (normalized) (GLP-1R [1]; GαoA): 0.4649
- Emax (GLP-1R [1]; GαoA): 0.009912
- Potency (logEC50) (GLP-1R [1]; GαoA): 0.573
- Efficacy (normalized) (GLP-1R [1]; GαoB): 0.7256
- Emax (GLP-1R [1]; GαoB): 0.03076
- Potency (logEC50) (GLP-1R [1]; GαoB): 0.2577
- Efficacy (normalized) (GLP-1R [1]; Gαq): 0
- Emax (GLP-1R [1]; Gαq): 0
- Potency (logEC50) (GLP-1R [1]; Gαq): 0
- Efficacy (normalized) (GLP-1R [1]; Gαs): 0
- Emax (GLP-1R [1]; Gαs): 0
- Potency (logEC50) (GLP-1R [1]; Gαs): 0
- Efficacy (normalized) (GLP-1R [1]; Gαz): 0.5189
- Emax (GLP-1R [1]; Gαz): 0.05365
- Potency (logEC50) (GLP-1R [1]; Gαz): 0.2291
- Efficacy (normalized) (GLP-1R [1]; βARR2): 0.458
- Potency (logEC50) (GLP-1R [1]; βARR2): 0.384
- Emax (GLP-1R [1]; GRK/Gβγ): 0.1194
- Emax (GLP-1R [1]; βARR): 0.07877
- mGs recruitment at early endosomes, in words (GLP-1R [1]; Rluc8-mGs, rGFP-FYVE, 60 min, n = 3): did not promote mGs recruitment at early endosomes at the concentrations tested
- Efficacy (normalized), GRK2/Gβγ (GLP-1R [2]; Supplementary Fig. 11a, GRK2/Gβγ): 0.507
- Efficacy (normalized), Gα11 (GLP-1R [2]; Supplementary Fig. 11a, Gα11): 0
- Efficacy (normalized), Gα12 (GLP-1R [2]; Supplementary Fig. 11a, Gα12): 0
- Efficacy (normalized), Gα13 (GLP-1R [2]; Supplementary Fig. 11a, Gα13): 0
- Efficacy (normalized), Gα14 (GLP-1R [2]; Supplementary Fig. 11a, Gα14): 0.9516
- Efficacy (normalized), Gα15 (GLP-1R [2]; Supplementary Fig. 11a, Gα15): 0
- Efficacy (normalized), Gαi1 (GLP-1R [2]; Supplementary Fig. 11a, Gαi1): 0
- Efficacy (normalized), Gαi2 (GLP-1R [2]; Supplementary Fig. 11a, Gαi2): 0
- Efficacy (normalized), Gαi3 (GLP-1R [2]; Supplementary Fig. 11a, Gαi3): 0
- Efficacy (normalized), GαoA (GLP-1R [2]; Supplementary Fig. 11a, GαoA): 0.4649
- Efficacy (normalized), GαoB (GLP-1R [2]; Supplementary Fig. 11a, GαoB): 0.7256
- Efficacy (normalized), Gαq (GLP-1R [2]; Supplementary Fig. 11a, Gαq): 0
- Efficacy (normalized), Gαs (GLP-1R [2]; Supplementary Fig. 11a, Gαs): 0
- Efficacy (normalized), Gαz (GLP-1R [2]; Supplementary Fig. 11a, Gαz): 0.5189
- Efficacy (normalized), βARR2 (GLP-1R [2]; Supplementary Fig. 11a, βARR2): 0.458
- Potency (logEC50), Gα11 (GLP-1R [2]; Supplementary Fig. 11b, Gα11): 0
- Potency (logEC50), Gα12 (GLP-1R [2]; Supplementary Fig. 11b, Gα12): 0
- Potency (logEC50), Gα13 (GLP-1R [2]; Supplementary Fig. 11b, Gα13): 0
- Potency (logEC50), Gα14 (GLP-1R [2]; Supplementary Fig. 11b, Gα14): 0.7414
- Potency (logEC50), Gα15 (GLP-1R [2]; Supplementary Fig. 11b, Gα15): 0
- Potency (logEC50), Gαi1 (GLP-1R [2]; Supplementary Fig. 11b, Gαi1): 0
- Potency (logEC50), Gαi2 (GLP-1R [2]; Supplementary Fig. 11b, Gαi2): 0
- Potency (logEC50), Gαi3 (GLP-1R [2]; Supplementary Fig. 11b, Gαi3): 0
- Potency (logEC50), GαoA (GLP-1R [2]; Supplementary Fig. 11b, GαoA): 0.573
- Potency (logEC50), GαoB (GLP-1R [2]; Supplementary Fig. 11b, GαoB): 0.2577
- Potency (logEC50), Gαq (GLP-1R [2]; Supplementary Fig. 11b, Gαq): 0
- Potency (logEC50), Gαs (GLP-1R [2]; Supplementary Fig. 11b, Gαs): 0
- Potency (logEC50), Gαz (GLP-1R [2]; Supplementary Fig. 11b, Gαz): 0.2291
- Potency (logEC50), βARR2 (GLP-1R [2]; Supplementary Fig. 11b, βARR2): 0.384
- pathway activation at the plasma membrane, in words (GLP-1R [3]; 15 pathways, HEK293, ebBRET): biased away from βARR towards Gs and Gi/o
- Efficacy (normalized) (GLP-1R [3]; GRK2/Gβγ): 0.6954
- Emax (GLP-1R [3]; GRK/Gβγ): 0.5067
- Emax (GLP-1R [3]; Gα11): 0
- Efficacy (normalized) (GLP-1R [3]; Gα11): 0
- Potency (logEC50) (GLP-1R [3]; Gα11): 0
- Emax (GLP-1R [3]; Gα12): 0
- Efficacy (normalized) (GLP-1R [3]; Gα12): 0
- Potency (logEC50) (GLP-1R [3]; Gα12): 0
- Emax (GLP-1R [3]; Gα13): 0
- Efficacy (normalized) (GLP-1R [3]; Gα13): 0
- Potency (logEC50) (GLP-1R [3]; Gα13): 0
- Emax (GLP-1R [3]; Gα14): 0
- Efficacy (normalized) (GLP-1R [3]; Gα14): 0
- Potency (logEC50) (GLP-1R [3]; Gα14): 0
- Emax (GLP-1R [3]; Gα15): 0
- Efficacy (normalized) (GLP-1R [3]; Gα15): 0
- Potency (logEC50) (GLP-1R [3]; Gα15): 0
- Emax (GLP-1R [3]; Gαi1): 0.0218
- Efficacy (normalized) (GLP-1R [3]; Gαi1): 0.3729
- Potency (logEC50) (GLP-1R [3]; Gαi1): 0.3182
- Emax (GLP-1R [3]; Gαi2): 0.2304
- Efficacy (normalized) (GLP-1R [3]; Gαi2): 0.9309
- Potency (logEC50) (GLP-1R [3]; Gαi2): 0.1266
- Emax (GLP-1R [3]; Gαi3): 0.03983
- Efficacy (normalized) (GLP-1R [3]; Gαi3): 0.6445
- Potency (logEC50) (GLP-1R [3]; Gαi3): 0.2454
- Emax (GLP-1R [3]; GαoA): 0
- Efficacy (normalized) (GLP-1R [3]; GαoA): 0
- Potency (logEC50) (GLP-1R [3]; GαoA): 0
- Emax (GLP-1R [3]; GαoB): 0.4329
- Efficacy (normalized) (GLP-1R [3]; GαoB): 0.5975
- Potency (logEC50) (GLP-1R [3]; GαoB): 0.326
- Emax (GLP-1R [3]; Gαq): 0
- Efficacy (normalized) (GLP-1R [3]; Gαq): 0
- Potency (logEC50) (GLP-1R [3]; Gαq): 0
- Emax (GLP-1R [3]; Gαs): 1.832
- Efficacy (normalized) (GLP-1R [3]; Gαs): 0.7714
- Potency (logEC50) (GLP-1R [3]; Gαs): 0.5221
- Emax (GLP-1R [3]; Gαz): 0.2013
- Efficacy (normalized) (GLP-1R [3]; Gαz): 0.678
- Potency (logEC50) (GLP-1R [3]; Gαz): 0.3391
- Emax (GLP-1R [3]; βARR): 0.3843
- Efficacy (normalized) (GLP-1R [3]; βARR2): 0.2947
- Efficacy (normalized), GRK2/Gβγ (GLP-1R [3]; plasma membrane rGFP-CAAX, HEK293, GRK2-D110A-RlucII, agonist incubation 0 min, normalized to the highest responding drug, F test P < 0.00625, n=3-6): 0.6954
- Potency (logEC50), Gα12 (GLP-1R [3]; [4]): 0
- Potency (logEC50), Gα13 (GLP-1R [3]; [4]): 0
- Efficacy (normalized), Gα13 (GLP-1R [3]; plasma membrane rGFP-CAAX, HEK293, PDZRhoGEF-RlucII, agonist incubation 0 min, normalized to the highest responding drug, F test P < 0.00625, n=3-6): 0
- Potency (logEC50), Gαi1 (GLP-1R [3]; [5]): 0.3182
- Potency (logEC50), Gαi2 (GLP-1R [3]; [5]): 0.1266
- Potency (logEC50), Gαi3 (GLP-1R [3]; [5]): 0.2454
- Potency (logEC50), GαoA (GLP-1R [3]; [5]): 0
- Potency (logEC50), GαoB (GLP-1R [3]; [5]): 0.326
- Potency (logEC50), Gαz (GLP-1R [3]; [5]): 0.3391
- Efficacy (normalized), Gαi1 (GLP-1R [3]; [6]): 0.3729
- Efficacy (normalized), Gαi2 (GLP-1R [3]; [6]): 0.9309
- Efficacy (normalized), Gαi3 (GLP-1R [3]; [6]): 0.6445
- Efficacy (normalized), GαoA (GLP-1R [3]; [6]): 0
- Efficacy (normalized), GαoB (GLP-1R [3]; [6]): 0.5975
- Efficacy (normalized), Gαz (GLP-1R [3]; [6]): 0.678
- Potency (logEC50), Gαs (GLP-1R [3]; plasma membrane rGFP-CAAX, HEK293, Rluc8-mGs, agonist incubation 0 min, as tabulated for polar area diagram, n=3-6): 0.5221
- Efficacy (normalized), Gαs (GLP-1R [3]; plasma membrane rGFP-CAAX, HEK293, Rluc8-mGs, agonist incubation 0 min, normalized to the highest responding drug, F test P < 0.00625, n=3-6): 0.7714
- Potency (logEC50), Gα11 (GLP-1R [3]; [7]): 0
- Potency (logEC50), Gα14 (GLP-1R [3]; [7]): 0
- Potency (logEC50), Gα15 (GLP-1R [3]; [7]): 0
- Potency (logEC50), Gαq (GLP-1R [3]; [7]): 0
- Efficacy (normalized), Gα11 (GLP-1R [3]; [8]): 0
- Efficacy (normalized), Gα14 (GLP-1R [3]; [8]): 0
- Efficacy (normalized), Gα15 (GLP-1R [3]; [8]): 0
- Efficacy (normalized), Gαq (GLP-1R [3]; [8]): 0
- Efficacy (normalized), βARR2 (GLP-1R [3]; plasma membrane rGFP-CAAX, HEK293, β-arrestin-2-RlucII, agonist incubation 0 min, normalized to the highest responding drug, F test P < 0.00625, n=3-6): 0.2947
